The source of these data is patent US9434687B2, “Detection of synthetic cannabinoids” (priority 2011, dated 2016).

The test has as its system antibodies raised to Immunogens I & II. Nature of the test: Competitive ELISA, selected molecules as potential cross-reactants (Table 3). The class given is binding, sheep. On the procedure:
(a) The wells of an enhanced binding 96 well polystyrene microtiter plate were coated with the Ig fraction of the antiserum raised to Immunogen I (Hapten A-BTG—example 5) and diluted in 10 mM Tris, pH8.5 (125 μl/well). The appropriate antibody coating concentration was determined using standard ELISA checkerboard techniques. The plate was incubated for 2 hours at 37° C., washed 4 times over a 10-minute period with Tris buffered saline containing Tween 20 (TBST) and tapped dry. Standard solutions of JWH synthetic cannabinoids, metabolites and selected molecules were prepared in TBST and 50 μl of each was added to the appropriate wells. 75 μl of conjugate (Hapten A-HRP) diluted in Tris buffer containing EDTA, D-mannitol, sucrose, thimerosal and BSA, was added to each of the wells. The appropriate dilution of conjugate was also determined using standard ELISA checkerboard techniques. The plate was incubated at 25° C. for 1 hour. The excess unbound conjugate was removed by washing 6 times over a 10-minute period with TBST and tapped dry. 125 μl of tetramethylbenzedine (TMB) substrate solution was added to each well of the plate that was then incubated for 15-20 minutes in the dark at room temperature. The reaction was terminated by addition of 125 μl of 0.2M sulphuric acid to each well. The absorbance was then measured at 450 nm using a microtiter plate reader.
Employing each series of standards, calibration curves were generated and these were used to determine the specificity of the immunoassay for the JWH synthetic cannabinoids, metabolites and selected molecules. The results of this study are presented in Tables 1 to 3, cross-reactivity being calculated according to the following formula: % CR=IC50,JWH-018/IC50,CR×100
Where % CR is the percentage cross-reactivity, IC50, JWH-018 is the concentration of JWH-018 that causes 50% displacement of signal and IC50, CR is the concentration of JWH synthetic cannabinoid/metabolite/selected molecule that causes 50% displacement of signal.
The antibody produced from Immunogen I is able to bind to JWH molecules known to be incorporated in herbal therapeutics such as JWH-018, proposed metabolites such as M2 (Wintermeyer et al 2010), and potential metabolites such as M5. The detection and quantification of other JWH SSCs is also provided for, the antibodies of the invention bind a range of molecules comprising the 3-(1-naphthoyl)-1H-indole structure (e.g. JWH-071, JWH-398, M1 etc.). […] The concept of using the antibodies of the invention to detect and determine future stealth synthetic cannabinoids is highlighted in Table 4; the 5-fluoropentyl derivative known to bind the CB 1 receptor, but which as of yet has not been detected in herbal therapeutics or similar substances, binds to antibodies raised from Immunogens I and II.
For orientation: In an ELISA, binding on a coated surface is turned into a signal by an enzyme label.
Consider `O=C(O)CCCCn1cc(C(=O)c2cccc3ccccc23)c2ccccc21` [JWH-018 N-pentanoic acid metabolite], for which the “binding / cross-reaction with antibodies raised from Immunogens I and II (in words)” value (“binding / cross-reaction” for short) was “bind”.

Take `CCCCCn1cc(C(=O)c2ccc(Cl)c3ccccc23)c2ccccc21` [JWH-398]: the “binding / cross-reaction” value was “bind”.

Consider `O=C(c1cccc2ccccc12)c1cn(CCCCCF)c2ccccc12` [AM-2201, 1-(5-Fluoropentyl)indol-3-yl (1-naphthyl) methanone], for which the “binding / cross-reaction” value is listed as “binds”.
